# According to patent US20060034780A1, “Dental compositions and methods” (The Boots Company, priority 2002, published 2006):
# Experiment: Whitening of extracted teeth, CIE whiteness index by image analysis
# Method: Extracted caries-free teeth collected from dental hospitals were briefly brushed to remove any skin tissue attached. The teeth were then sterilized by autoclaving at 121° C. for 25 mins. All teeth were stored in an airtight plastic container containing a solution of Phosphate Buffered Saline (PBS) with a few crystals of thymol as an antibacterial agent until required for use. Twenty four hours before the study, each tooth was glued onto a numbered glass microscope slide. A pellicle was formed on the teeth by soaking in sterilised artificial saliva with the composition set out in Table 1.
# After the 24 hr period of pellicle formation, the teeth were then brushed with an Oral B Plaque remover electric toothbrush for 2 mins, with a standard fluoride toothpaste, the composition of which is set out in Table 2:
# Excess toothpaste was removed by briefly rinsing each tooth with deionised water. The teeth were returned to a fresh aliquot of artificial saliva and then measured. The measured whiteness index (determined by image analysis as described below) was taken as the baseline against which subsequent measurements were compared.
# […] Teeth were returned to a fresh aliquot of artificial saliva and a Post-Bleach measurement taken.
# FWA was applied to the teeth by immersion in a 500 ppm FWA solution (50 mg FWA in 100 ml deionised water stirred for 30 minutes) for 1 hr. The teeth were returned to a fresh aliquot of artificial saliva and a post-FWA measurement taken.
# Each tooth was imaged using a Kodak DCS 410 camera, which was mounted 10 cm above and perpendicular to the specimen, using aperture F11 and a shutter speed of 1/10 second. The standardised lighting source comprised two UV tubes and two 6500K ‘daylight’ tubes. Each image was transferred to Adobe PhotoShop software. For each image, an 8 mm^2 area was analysed and an average Adobe L,a,b reading obtained using the software. All L,a,b values were converted to CIE L*,a*,b* and then to the CIE whiteness index W, using the equation: W=Y+800(xn−x)+1700(yn−y) where Y is the Y-tristimulus value of the specimen, x and y, and xn and yn are the chromaticity coordinates for the specimen and for the perfect diffuser for the CIE 1931 2° Standard Observer, respectively. Results
compound,measurement,setting,value
"OO [Example H2O2, hydrogen peroxide]",average percentage increase in whiteness index,"H2O2 alone: immersion in 15% hydrogen peroxide solution for 1 hr, vs baseline, six groups of three teeth",17%
same,change in whiteness index (in words),"treatment with 15% H2O2, each group of teeth, vs baseline",increase in whiteness index
sodium chlorite,average percentage increase in whiteness index,"bleach alone: sodium chlorite (generating chlorine dioxide in use) in place of H2O2, vs baseline",8%
"O=S(=O)(O)c1ccccc1C=Cc1ccc(-c2ccc(C=Cc3ccccc3S(=O)(=O)O)cc2)cc1 [FWA, 4,4′-bis(2-sulfostyryl)biphenyl]",change in whiteness index (in words) compared with treatment with H2O2 alone,FWA treatment after 15% H2O2 bleaching,further increase in whiteness
same,average percentage increase in whiteness index,"combined treatment using chlorine dioxide (sodium chlorite bleach) and FWA (Tinopal CBS-X), vs baseline",41%
same,average percentage increase in whiteness index,"combined treatment: 15% H2O2 1 hr, then 500 ppm FWA solution 1 hr, vs baseline, six groups of three teeth",24%
